Data taken from ChEMBL document CHEMBL1201862, “PubChem BioAssay data set” (2004).
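Growth conditions: 96-well plates. Treatment: test compound, 48 hours, 5 concentrations. Analysis: linear interpolation between bracketing concentrations; unreached endpoints set to highest concentration. GI50 = concentration required for 50% inhibition of growth.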 Activity calls are given as the source filed them. No stated cut-off is given here; in the data, active = GI50 up to about 1.1 µM and inactive = higher.

Columns and labels:
Assay in all cases: inhibition of tumour cell growth, NCI panel, 48 h
KM12 = test system: KM12
COLO 205 = test system: COLO 205
HCT-116 = test system: HCT-116
HOP-92 = test system: HOP-92
ACHN = test system: ACHN
SNB-19 = test system: SNB-19
OVCAR-8 = test system: OVCAR-8
OVCAR-5 = test system: OVCAR-5
UACC-62 = test system: UACC-62
SW-620 = test system: SW-620
SK-MEL-28 = test system: SK-MEL-28
SF-539 = test system: SF-539
TK-10 = test system: TK-10
UACC-257 = test system: UACC-257
SK-OV-3 = test system: SK-OV-3
CCRF-CEM = test system: CCRF-CEM

Structure (SMILES)	GI50 (KM12)	GI50 (COLO 205)	GI50 (HCT-116)	GI50 (HOP-92)	GI50 (ACHN)	GI50 (SNB-19)	GI50 (OVCAR-8)	GI50 (OVCAR-5)	GI50 (UACC-62)	GI50 (SW-620)	GI50 (SK-MEL-28)	GI50 (SF-539)	GI50 (TK-10)	GI50 (UACC-257)	GI50 (SK-OV-3)	GI50 (CCRF-CEM)
CCOC(=O)CC1=Nc2ccccc2SC1	> 100 µM (inactive)	> 100 µM (inactive)	> 100 µM (inactive)	> 100 µM (inactive)	> 100 µM (inactive)	> 100 µM (inactive)	> 100 µM (inactive)	> 100 µM (inactive)	> 100 µM (inactive)	> 100 µM (inactive)	1.29 µM (inactive)	> 100 µM (inactive)	> 100 µM (inactive)	> 100 µM (inactive)	–	–
CCSc1nnc(CSc2nc(-c3ccccc3)c(-c3ccccc3)[nH]2)n1-c1ccccc1	16.9 µM (inactive)	16.1 µM (inactive)	18.2 µM (inactive)	20.8 µM (inactive)	17.2 µM (inactive)	16.1 µM (inactive)	21.6 µM (inactive)	14.5 µM (inactive)	15.3 µM (inactive)	16.6 µM (inactive)	21 µM (inactive)	–	22.6 µM (inactive)	18.6 µM (inactive)	26.4 µM (inactive)	17 µM (inactive)
C/C(CCn1[nH]c(=O)ccc1=O)=N\O	> 100 µM (inactive)	–	> 100 µM (inactive)	> 100 µM (inactive)	> 100 µM (inactive)	> 100 µM (inactive)	> 100 µM (inactive)	> 100 µM (inactive)	> 100 µM (inactive)	> 100 µM (inactive)	> 100 µM (inactive)	> 100 µM (inactive)	> 100 µM (inactive)	> 100 µM (inactive)	–	> 100 µM (inactive)
COc1c(C)cc2c(c1O)C1C3[C@H]4SC[C@@]5(NCCC6=C5NC5C=CC=CC65)C(=O)OCC(c5c6c(c(C)c(OC(C)=O)c54)OCO6)N3[C@@H](O)C(C2)N1C (some centres not stated)	–	< 0.01 µM (active)	< 0.01 µM (active)	–	< 0.01 µM (active)	< 0.01 µM (active)	< 0.01 µM (active)	–	< 0.01 µM (active)	< 0.01 µM (active)	0.0134 µM (active)	< 0.01 µM (active)	< 0.01 µM (active)	< 0.01 µM (active)	–	< 0.01 µM (active)
COc1cccc2cc(C)c(C(=O)c3ccccc3)nc12	> 100 µM (inactive)	> 100 µM (inactive)	> 100 µM (inactive)	–	> 100 µM (inactive)	> 100 µM (inactive)	> 100 µM (inactive)	> 100 µM (inactive)	> 100 µM (inactive)	> 100 µM (inactive)	> 100 µM (inactive)	> 100 µM (inactive)	> 100 µM (inactive)	82.2 µM (inactive)	–	> 100 µM (inactive)
Cc1cc(C)nc(NS(=O)(=O)c2ccc(Nc3c4ccccc4nc4c(C(=O)NCCN(C)C)ccc(Cl)c34)cc2)n1	1.7 µM (inactive)	1.06 µM (active)	0.798 µM (active)	–	2.02 µM (inactive)	1.45 µM (inactive)	0.681 µM (active)	4.7 µM (inactive)	1.74 µM (inactive)	0.679 µM (active)	5.4 µM (inactive)	2.36 µM (inactive)	5.07 µM (inactive)	–	–	1.31 µM (inactive)
C[C@@H](NC1CCC[C@@H]1O)c1ccccc1 (some centres not stated)	> 100 µM (inactive)	> 100 µM (inactive)	> 100 µM (inactive)	> 100 µM (inactive)	> 100 µM (inactive)	> 100 µM (inactive)	> 100 µM (inactive)	> 100 µM (inactive)	> 100 µM (inactive)	> 100 µM (inactive)	> 100 µM (inactive)	–	> 100 µM (inactive)	> 100 µM (inactive)	> 100 µM (inactive)	> 100 µM (inactive)
